{
  "source": "patent US20250197368A1",
  "about": "(priority 2020, published 2025)",
  "key": {"[1]": {"molecular_target": "human α2β3γ2 GABAARs (benzodiazepine site) (Homo sapiens (Human), UniProt P18507+P47869)", "sequence (P47869 29-451)": "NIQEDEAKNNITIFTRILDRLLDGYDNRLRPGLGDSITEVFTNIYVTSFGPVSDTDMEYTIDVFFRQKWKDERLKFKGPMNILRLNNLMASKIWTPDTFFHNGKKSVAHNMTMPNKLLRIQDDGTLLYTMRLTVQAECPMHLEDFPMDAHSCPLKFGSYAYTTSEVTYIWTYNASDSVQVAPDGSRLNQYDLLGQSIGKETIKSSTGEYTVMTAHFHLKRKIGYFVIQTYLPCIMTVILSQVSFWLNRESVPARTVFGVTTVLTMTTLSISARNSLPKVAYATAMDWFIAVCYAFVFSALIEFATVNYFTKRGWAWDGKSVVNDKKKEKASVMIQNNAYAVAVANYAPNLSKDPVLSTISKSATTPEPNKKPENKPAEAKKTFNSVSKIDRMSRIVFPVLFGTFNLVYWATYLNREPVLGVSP", "sequence (P28472 26-473 partner)": "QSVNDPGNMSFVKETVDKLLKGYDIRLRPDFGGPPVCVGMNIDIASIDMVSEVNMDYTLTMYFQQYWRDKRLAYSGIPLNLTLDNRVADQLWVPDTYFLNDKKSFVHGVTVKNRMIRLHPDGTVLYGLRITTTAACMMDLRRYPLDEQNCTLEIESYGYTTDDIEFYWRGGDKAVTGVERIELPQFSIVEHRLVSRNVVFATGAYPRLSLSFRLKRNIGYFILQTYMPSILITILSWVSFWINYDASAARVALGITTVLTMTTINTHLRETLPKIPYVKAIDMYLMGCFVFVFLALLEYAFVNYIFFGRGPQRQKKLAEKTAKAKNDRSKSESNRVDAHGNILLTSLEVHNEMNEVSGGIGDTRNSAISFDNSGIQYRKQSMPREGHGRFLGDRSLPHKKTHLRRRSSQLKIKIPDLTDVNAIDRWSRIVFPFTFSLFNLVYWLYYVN", "sequence (P18507 40-475)": "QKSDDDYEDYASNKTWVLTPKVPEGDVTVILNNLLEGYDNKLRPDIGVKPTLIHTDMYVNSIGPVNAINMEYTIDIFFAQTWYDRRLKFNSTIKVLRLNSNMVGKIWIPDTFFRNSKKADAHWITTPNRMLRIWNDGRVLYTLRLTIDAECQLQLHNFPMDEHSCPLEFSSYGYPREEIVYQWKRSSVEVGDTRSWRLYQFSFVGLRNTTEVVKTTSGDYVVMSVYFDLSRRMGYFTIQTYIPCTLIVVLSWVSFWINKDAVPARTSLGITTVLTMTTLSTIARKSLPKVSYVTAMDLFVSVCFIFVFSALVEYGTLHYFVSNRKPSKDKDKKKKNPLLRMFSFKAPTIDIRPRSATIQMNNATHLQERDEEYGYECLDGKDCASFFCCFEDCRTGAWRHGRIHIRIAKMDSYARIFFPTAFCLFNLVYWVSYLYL", "test": "In vitro radioligand binding assay ([3H]Ro15-1788 displacement), α2-GABAAR Ki", "how_it_was_run": "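Ki derived via Cheng-Prusoff from IC50 for displacement of 4 nM [3H]Ro15-1788 (Kd from saturation binding), with 1-3 μM TP003 defining nonspecific binding. Incubation lasted 1 h at 4° C on membranes of induced L(tk−) cells stably transfected with the human subunits; detection by filtration and scintillation counting.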"}, "[2]": {"system": "human α2β3γ2 GABAARs", "test": "In vitro electrophysiological recording assay (automated patch-clamp), α2-GABAAR relative efficacy", "type": "cell-based", "details": "% efficacy normalised to diazepam; GABA EC10-20; concentration generally >= 100 times Ki", "protocol": "The efficacy of modulators was evaluated using the automated patch-clamp platforms QPatch16 (Sophion, Copenhagen, Denmark) or SyncroPatch 384PE (Nanion, Germany).\nFor QPatch electrophysiology testing L(tk^−) cells stably expressing human α1β3γ2, α2β3γ2, α3β3γ2, α5β3γ2 GABAARs were used. HEK293 cells stably expressing human α1β3γ2L, α2β3γ2L, α3β3γ2L and α5β3γ2L GABAARs were used for the SyncroPatch 384PE experiments.\nAll experiments were carried out at room temperature (20-22° C.) using a standard whole cell procedure and physiological solutions. Gigaseals were formed upon execution of a combined suction/voltage protocol with subsequent increased suction leading to the whole-cell configuration.\nThe currents recorded were acquired at either 1 KHz or 2 KHz and filtered using a Bessel filter. Whole-cell currents were measured at a holding potential of-65 mV (QPatch) or −80 mV (SyncroPatch).\nFor QPatch experiments, the extracellular solution contained of: 145 mM NaCl, 4 mM KCl, 1 mM MgCl2, 2 mM CaCl2), 10 mM HEPES, 10 mM D-glucose (pH 7.4), and the intracellular solution consisted of: 96 mM KCl, 28 mM CsCl, 25 mM KOH, 4.3 mM CaCl2), 1.4 mM MgCl2, 10 mM EGTA, 10 mM HEPES, 3 mM MgATP (pH 7.2). The osmolarities of the extracellular and intracellular solutions were 305 and 295 mOsm respectively.\nFor SyncroPatch experiments, the extracellular recording solution contained: 140 mM NaCl, 4 mM KCl, 2 mM CaCl2), 1 mM MgCl2, 10 mM HEPES, 5 mM glucose (pH 7.4 with NaOH and osmolarity of c. 300-310 mOsm). The intracellular recording solution consisted of: 90 mM KCl, 50 mM KF, 1.5 mM MgCl2, 11.1 mM EGTA and 10 mM HEPES (pH 7.2 with KOH and osmolarity of c. 300 mOsm). 2 mM of NaATP was added to the intracellular solution on the day of testing.\nThe effects of modulators were evaluated in the presence of a submaximal GABA concentration, giving typically less than 30% activation of the response elicited by a saturating GABA concentration. To check and ensure baseline current stability before compound addition, two to five consecutive applications of GABA EC10-20 separated by wash steps were performed before compound addition. The test compound was applied 1 min at least prior to co-application with GABA EC10-20. Following a further wash step, a saturating concentration of GABA was applied at the end of each recording, allowing the accurate evaluation for each cell of the percentage baseline activation elicited by the submaximal GABA applied.\nThe compounds were first dissolved in DMSO as a 10 mM stock and then further diluted to the testing concentrations so that the final DMSO concentration in the extracellular recording solution was 0.1% (QPatch) or 0.2% (SyncroPatch).\nThe % efficacy of modulators was determined from the GABA elicited currents recorded in the presence and absence of the test compound, using the formula:\n[((compound peak current−leak)−(GABA peak current-leak))/(GABA peak current−leak)]*100,\nwhere ‘leak’ is the leak baseline current at the holding potential, ‘compound peak current’ is the current elicited by co-application of compound and GABA, and ‘GABA peak current’ is the current elicited by GABA alone at the last GABA application before compound addition. The results were presented as ‘relative efficacy’ for each compound generally at a concentration equal or higher than 100 times their determined Ki. The relative efficacy of a compound was calculated by normalising its % efficacy to the corresponding % efficacy of diazepam that was separately determined."}},
  "data": [
    {"smiles": "CCCNC(=O)c1c(N)c2cccc(-c3cc(OCc4ccccn4)ccc3C)c2[nH]c1=O", "note": "[Example 86, 4-Amino-8-[2-methyl-5-(2-pyridylmethoxy)phenyl]-2-oxo-N-propyl-1H-quinoline-3-carboxamide]", "values": [
      {"measurement": "Ki", "setting": "[1]", "result": 1.71, "unit": "nM"},
      {"measurement": "α2-GABAAR Relative Efficacy (vs. Diazepam)", "setting": "[2]", "result": 0.28}
    ]},
    {"smiles": "CCCNC(=O)c1c(N)c2cccc(-c3cccc(OCc4ccccn4)c3)c2[nH]c1=O", "note": "[Example 87, 4-Amino-2-oxo-N-propyl-8-[3-(2-pyridylmethoxy)phenyl]-1H-quinoline-3-carboxamide]", "values": [
      {"measurement": "Ki", "setting": "[1]", "result": 1.78, "unit": "nM"},
      {"measurement": "α2-GABAAR Relative Efficacy (vs. Diazepam)", "setting": "[2]", "result": 0.24}
    ]},
    {"smiles": "COc1ccncc1-c1cccc2c(N)c(C(=O)NCCCF)c(=O)[nH]c12", "note": "[Example 67, 4-Amino-N-(3-fluoropropyl)-8-(4-methoxy-3-pyridyl)-2-oxo-1H-quinoline-3-carboxamide]", "values": [
      {"measurement": "Ki", "setting": "[1]", "result": 3.74, "unit": "nM"},
      {"measurement": "α2-GABAAR Relative Efficacy (vs. Diazepam)", "setting": "[2]", "result": 0.54}
    ]},
    {"smiles": "CCCNC(=O)c1c(N)c2cccc(-c3cc(OCCn4cnnc4)ccc3F)c2[nH]c1=O", "note": "[Example 134, 4-Amino-8-[2-fluoro-5-[2-(1,2,4-triazol-4-yl)ethoxy]phenyl]-2-oxo-N-propyl-1H-quinoline-3-carboxamide]", "values": [
      {"measurement": "Ki", "setting": "[1]", "result": 0.17, "unit": "nM"},
      {"measurement": "α2-GABAAR Relative Efficacy (vs. Diazepam)", "setting": "[2]", "result": 0.04}
    ]},
    {"smiles": "CCCNC(=O)c1c(N)c2cccc(-c3cc(OCC)ncc3F)c2[nH]c1=O", "note": "[Example 35, 4-Amino-8-(2-ethoxy-5-fluoropyridin-4-yl)-2-oxo-N-propyl-1,2-dihydroquinoline-3-carboxamide]", "values": [
      {"measurement": "Ki", "setting": "[1]", "result": 2.45, "unit": "nM"},
      {"measurement": "α2-GABAAR Relative Efficacy (vs. Diazepam)", "setting": "[2]", "result": 0.52}
    ]},
    {"smiles": "CCCNC(=O)c1c(N)c2cccc(-c3cnccn3)c2[nH]c1=O", "note": "[Example 45, 4-Amino-2-oxo-N-propyl-8-(pyrazin-2-yl)-1,2-dihydroquinoline-3-carboxamide]", "values": [
      {"measurement": "Ki", "setting": "[1]", "result": 5.04, "unit": "nM"},
      {"measurement": "α2-GABAAR Relative Efficacy (vs. Diazepam)", "setting": "[2]", "result": 0.11}
    ]},
    {"smiles": "CCCNC(=O)c1c(N)c2cccc(-c3cc(OCc4cccnc4)ccc3F)c2[nH]c1=O", "note": "[Example 108, 4-Amino-8-[2-fluoro-5-(3-pyridylmethoxy)phenyl]-2-oxo-N-propyl-1H-quinoline-3-carboxamide]", "values": [
      {"measurement": "Ki", "setting": "[1]", "result": 0.39, "unit": "nM"},
      {"measurement": "α2-GABAAR Relative Efficacy (vs. Diazepam)", "setting": "[2]", "result": 0.32}
    ]},
    {"smiles": "CCCNC(=O)c1c(N)c2cccc(-c3cc(OCc4cccnn4)ccc3F)c2[nH]c1=O", "note": "[Example 105, 4-Amino-8-[2-fluoro-5-(pyridazin-3-ylmethoxy)phenyl]-2-oxo-N-propyl-1H-quinoline-3-carboxamide]", "values": [
      {"measurement": "Ki", "setting": "[1]", "result": 0.21, "unit": "nM"},
      {"measurement": "α2-GABAAR Relative Efficacy (vs. Diazepam)", "setting": "[2]", "result": 0.19}
    ]},
    {"smiles": "CCCNC(=O)c1c(N)c2cccc(-c3nc(COC)ccc3F)c2[nH]c1=O", "note": "[Example 10, 4-Amino-8-(3-fluoro-6-(methoxymethyl)pyridin-2-yl)-2-oxo-N-propyl-1,2-dihydroquinoline-3-carboxamide]", "values": [
      {"measurement": "Ki", "setting": "[1]", "result": 1.5, "unit": "nM"},
      {"measurement": "α2-GABAAR Relative Efficacy (vs. Diazepam)", "setting": "[2]", "result": 0.22}
    ]},
    {"smiles": "CCCNC(=O)c1c(N)c2cccc(-c3cn(C)nc3C)c2n(CC)c1=O", "note": "[Example 83, 4-Amino-8-(1,3-dimethylpyrazol-4-yl)-1-ethyl-2-oxo-N-propyl-quinoline-3-carboxamide]", "values": [
      {"measurement": "Ki", "setting": "[1]", "result": 15.7, "unit": "nM"},
      {"measurement": "α2-GABAAR Relative Efficacy (vs. Diazepam)", "setting": "[2]", "result": 0.40}
    ]},
    {"smiles": "CCCNC(=O)c1c(N)c2cccc(-c3cncc(OCC)c3)c2[nH]c1=O", "note": "[Example 26, 4-Amino-8-(5-ethoxypyridin-3-yl)-2-oxo-N-propyl-1,2-dihydroquinoline-3-carboxamide]", "values": [
      {"measurement": "Ki", "setting": "[1]", "result": 5.58, "unit": "nM"},
      {"measurement": "α2-GABAAR Relative Efficacy (vs. Diazepam)", "setting": "[2]", "result": 0.15}
    ]},
    {"smiles": "CCCNC(=O)c1c(N)c2cccc(-c3cc(OCc4ccc(C#N)cn4)ccc3F)c2[nH]c1=O", "note": "[Example 99, 4-Amino-8-[5-[(5-cyano-2-pyridyl)methoxy]-2-fluoro-phenyl]-2-oxo-N-propyl-1H-quinoline-3-carboxamide]", "values": [
      {"measurement": "Ki", "setting": "[1]", "result": 0.24, "unit": "nM"},
      {"measurement": "α2-GABAAR Relative Efficacy (vs. Diazepam)", "setting": "[2]", "result": 0.28}
    ]},
    {"smiles": "CCCNC(=O)c1c(N)c2cccc(-c3cc(OCc4cc(OC)ccn4)ccc3F)c2[nH]c1=O", "note": "[Example 100, 4-Amino-8-[2-fluoro-5-[(4-methoxy-2-pyridyl)methoxy]phenyl]-2-oxo-N-propyl-1H-quinoline-3-carboxamide]", "values": [
      {"measurement": "Ki", "setting": "[1]", "result": 0.07, "unit": "nM"},
      {"measurement": "α2-GABAAR Relative Efficacy (vs. Diazepam)", "setting": "[2]", "result": 0.18}
    ]}
  ]
}
